From patent US20130245110A1, “USE FOR CANNABINOIDS” (priority 2008, published 2013)
Where “and” joins values, the source holds several entries; their conditions need not be identical. Equal values may be shown once.

What was measured:
C57B1/6 ob/ob mouse [1] = experiment: Fed plasma cholesterol; assay type: in vivo; details: ob/ob mice, individual values
Method: Blood samples were also taken at −30 minutes for insulin analysis. • e) Blood Glucose analysis: Duplicate 20 μl samples of blood of were taken for each individual sample and placed in a 96-well assay plate. To each well was added 180 μl aliquots of glucose oxidase reagent. Samples were mixed and then left for approximately 30 minutes. Samples were then analysed automatically using a SpectraMax-250 and SoftMax Pro software. • f) Plasma preparation: Blood was collected for the measurement of i) plasma insulin, ii) cholesterol, iii) free fatty acids or iv) triglyceride concentration. • i. Plasma insulin analysis: Plasma insulin was measured using 5 μl of plasma, compared with a mouse insulin standard using a 96-well micro-assay plate • ii. Plasma cholesterol analysis: To each sample was added 200 μl of infinity cholesterol liquid stable reagent. The samples were mixed and incubated for 5 minutes before reading at dual wavelengths of 500 and 660 nm. • iii. Plasma free fatty acids: 5 μl samples of plasma were measured into a 96-well assay plate, to which was added 0.2 ml of reagents NEFA C • iv. Plasma triglycerides analysis: To each well 200 μl aliquots of triglycerides reagent. […] Comparison with a calibrated standard allowed identification of types of tissue by their density. Dedicated software was using to quantify amounts of bone and fat. The mice were lightly anaesthetised, sufficient to keep them quiescent during this non-invasive technique. • h) Energy expenditure measurements: Energy expenditure was measured by open circuit indirect calorimetry with mice in their home cages. For studies of 24 h energy expenditure, mice were dosed with their allocated treatment and then measurements commenced. […] Plasma leptin was measured in fed mice using the Crystal Chem Elisa assay. • j) Plasma adiponectin: Adiponectin exerts some of its weight reduction effects via the brain. […] Plasma adiponectin was measured in overnight fasted mice using the 96-well B-Bridge Elisa assay. • k) Plasma HDL-cholesterol: Plasma HDL-cholesterol was measured in fed mice using the kit from Trinity Biotech. • l) 24 h blood glucose profile: This was determined in order to ensure that changes in the diurnal control of blood glucose were detected. Thus blood samples were obtained at three hourly intervals throughout a continuous 24 h period. • m) Plasma haemoglobin AIC: Samples (10 μl) were analysed using the AIC. […] Morphology was assessed using hematoxylin and eosin staining. • p) Liver glycogen: After centrifugation (3000×g for 15 min), an aliquot of the supernatant (10 μl) is assayed using the glucose oxidase method. […] The residue is dissolved in 200 μl ethanol and triglyceride content measured. […]

rat isolated aortae = experiment: In vitro vascular studies by wire myography; details: for Time-dependent relaxation of pre-contracted aorta: 2 h (120 min)
C57B1/6 ob/ob mouse [2] = experiment: Thermic effect of a Complan meal: 3-hour energy expenditure; assay type: in vivo; set-up: unit not given here; details: ob/ob mice, day 17
[3] = 3.0 mg·kg−1 daily oral gavage (combination: both 3.0)

| SMILES | Fed plasma cholesterol day 28 (C57B1/6 ob/ob mouse [1]; [3]) | Fed plasma cholesterol day 28 (C57B1/6 ob/ob mouse [1]; 3.0 mg·kg−1 daily oral gavage (combination: both 3.0), listed as Pure CBD) | Potency and maximal contractile response to re-introduction of calcium (rat isolated aortae; calcium free, high potassium Krebs-Hensleit solution, CBD from 1 μM to 30 μM) | Vasorelaxant effect in arteries contracted with high potassium buffer (rat isolated aortae; compared with control) | Vasorelaxant effect, tone induced with U46619 in calcium free buffer (rat isolated aortae; compared with control) | Vasorelaxant effect in endothelium-denuded versus control aortae (rat isolated aortae; rat aorta) | Time-dependent relaxation of pre-contracted aorta (rat isolated aortae; rat aorta, 10 μM) | Residual relaxation (vasorelaxant effect minus effect of vehicle and time) (rat isolated aortae; rat aorta, 10 μM, after 2 h) | Basal tension over time (rat isolated aortae; rat aorta, 2 h) | Time-dependent vascular responses in the presence of AM251 (rat isolated aortae; rat aorta, CB1 antagonist AM251 1 μM) | Residual vasorelaxant effects in the presence of SR144528 (rat isolated aortae; rat aorta, CB2 antagonist SR144528 1 μM, between 45 min to 90 min) | Residual vasorelaxant effect in the presence of L-NAME (rat isolated aortae; rat aorta, L-NAME 300 μM, versus control conditions) | Residual vasorelaxant effect in the presence of GW9662 (rat isolated aortae; rat aorta, PPARγ antagonist GW9662 1 μM, after 1 h of incubation) | Vascular response over time after pre-treatment with PTX or capsaicin (rat isolated aortae; rat arteries, PTX 200 ng ml−1, 2 h or capsaicin 10 μM, 1 h) | Thermic effect of a meal: 3-hour energy expenditure per animal (C57B1/6 ob/ob mouse [2]; 3.0 mg/kg daily oral gavage (combination: both 3.0 mg/kg), listed as pure CBD) | Fed plasma cholesterol day 28 (C57B1/6 ob/ob mouse [1]; 0.3 mg·kg−1 daily oral gavage (combination: both 0.3)) | Time without effect on tone (rat isolated aortae; pre-contracted aortae, 10 μM) | Thermic effect of a meal: 3-hour energy expenditure per animal (C57B1/6 ob/ob mouse [2]; 0.3 mg/kg daily oral gavage (combination: both 0.3 mg/kg)) | Thermic effect of a meal: 3-hour energy expenditure per animal (C57B1/6 ob/ob mouse [2]; 3.0 mg/kg daily oral gavage (combination: both 3.0 mg/kg)) | Thermic effect of a meal: 3-hour energy expenditure per animal (C57B1/6 ob/ob mouse [2]; 3.0 mg/kg daily oral gavage (combination: both 3.0 mg/kg), listed as pure THCV) |
| --- | --- | --- | --- | --- | --- | --- | --- | --- | --- | --- | --- | --- | --- | --- | --- | --- | --- | --- | --- | --- |
| C=C(C)[C@@H]1CCC(C)=C[C@H]1c1c(O)cc(CCCCC)cc1O [CBD, cannabidiol] | reduced the total plasma cholesterol concentration and 3.64 and 4.22 and 3.77 and 5.02 and 2.90 and 5.38 and 3.50 | reduced the total plasma cholesterol | significantly reduced in a concentration-dependent manner | no difference | significantly blunted | similar | 69.7±4.0 % relaxation | 50.1±3.3 % relaxation | -0.03 ± 0.01 g | did not significantly affect | significantly inhibited | not different | significantly reduced | no effect | did not significantly increase energy expenditure |  |  |  |  |  |
| CCCc1cc(O)c2c(c1)OC(C)(C)[C@@H]1CCC(C)=C[C@@H]21 [THCV, tetrahydrocannabivarin] | 6.30 and 6.94 and 6.59 and 6.20 and 7.22 and 6.46 and 7.66 and 7.05 |  |  |  |  |  | 28.7±4.6 % relaxation |  |  |  |  |  |  |  |  | 7.12 and 8.60 and 6.43 and 5.99 and 6.21 and 6.45 and 5.93 and 5.62 | > 105 min | 8.18 and 7.04 | 8.94 and 8.79 | significant effect |
